# Measured values published in publication PMC10692723 (The Journal of Biological Chemistry, 2023).
# Ends that are not written are not given here. * marks the point of attachment. FITC = O=C1OC2(c3ccc(O)cc3Oc3cc(O)ccc32)c2ccc(NC(=S)*)cc21
# B1: C3S1-pd peptide (peptide)
# peptide: EDGGSSWEYIWTLPSG
# B2: FITC-conjugated CD44 peptide (SRRRCGQKKKLVINSGNGAVEDYK-FITC) (peptide)
# peptide: SRRRCGQKKKLVINSGNGAVEDYK(FITC)
# B3: MSN FERM domain (1-345) H288A, untagged (domain or fragment)
# chain: MPKTISVRVTTMDAELEFAIQPNTTGKQLFDQVVKTIGLREVWFFGLQYQDTKGFSTWLKLNKKVTAQDVRKESPLLFKFRAKFYPEDVSEELIQDITQRLFFLQVKEGILNDDIYCPPETAVLLASYAVQSKYGDFNKEVHKSGYLAGDKLLPQRVLEQHKLNKDQWEERIQVWHEEHRGMLREDAVLEYLKIAQDLEMYGVNYFSIKNKKGSELWLGVDALGLNIYEQNDRLTPKIGFPWSEIRNISFNDKKFVIKPIDKKAPDFVFYAPRLRINKRILALCMGNAELYMRRRKPDTIEVQQMKAQAREEKHQKQMERAMLENEKKKREMAEKEKEKIEREKE
# B4: MSN FERM domain (1-345) L281R, untagged (domain or fragment)
# chain: MPKTISVRVTTMDAELEFAIQPNTTGKQLFDQVVKTIGLREVWFFGLQYQDTKGFSTWLKLNKKVTAQDVRKESPLLFKFRAKFYPEDVSEELIQDITQRLFFLQVKEGILNDDIYCPPETAVLLASYAVQSKYGDFNKEVHKSGYLAGDKLLPQRVLEQHKLNKDQWEERIQVWHEEHRGMLREDAVLEYLKIAQDLEMYGVNYFSIKNKKGSELWLGVDALGLNIYEQNDRLTPKIGFPWSEIRNISFNDKKFVIKPIDKKAPDFVFYAPRLRINKRIRALCMGNHELYMRRRKPDTIEVQQMKAQAREEKHQKQMERAMLENEKKKREMAEKEKEKIEREKE
# Legend:
# [1] = molecular target: GST-MSN and Venus-Flag-CD44 (Homo sapiens, UniProt P26038); experiment: GST pull-down assay in cell lysates; type: binding; conditions: full-length GST-MSN and Flag-CD44
# Chain of GST-MSN and Venus-Flag-CD44 (P26038 whole entry): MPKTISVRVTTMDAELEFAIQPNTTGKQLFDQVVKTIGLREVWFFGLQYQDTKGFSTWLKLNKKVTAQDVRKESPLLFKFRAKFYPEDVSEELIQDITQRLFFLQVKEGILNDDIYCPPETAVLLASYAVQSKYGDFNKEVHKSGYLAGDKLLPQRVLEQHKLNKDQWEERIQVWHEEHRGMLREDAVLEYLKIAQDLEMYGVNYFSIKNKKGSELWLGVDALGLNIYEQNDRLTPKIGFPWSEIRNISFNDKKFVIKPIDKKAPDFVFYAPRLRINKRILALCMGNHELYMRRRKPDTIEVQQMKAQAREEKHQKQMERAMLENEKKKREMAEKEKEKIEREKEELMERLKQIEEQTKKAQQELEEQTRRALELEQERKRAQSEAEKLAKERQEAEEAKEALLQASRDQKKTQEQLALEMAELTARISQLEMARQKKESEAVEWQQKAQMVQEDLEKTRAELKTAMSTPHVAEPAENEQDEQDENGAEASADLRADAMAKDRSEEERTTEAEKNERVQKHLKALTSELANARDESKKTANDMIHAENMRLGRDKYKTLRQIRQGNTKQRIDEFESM
# MSN–CD44 interaction = MSN–CD44 interaction (Homo sapiens, UniProt P26038); experiment: MSN–CD44 TR-FRET assay; type: binding; conditions: for increase in potency relative to compound 2: MSN–CD44 TR-FRET
# Chain of MSN–CD44 interaction (P26038 1-345): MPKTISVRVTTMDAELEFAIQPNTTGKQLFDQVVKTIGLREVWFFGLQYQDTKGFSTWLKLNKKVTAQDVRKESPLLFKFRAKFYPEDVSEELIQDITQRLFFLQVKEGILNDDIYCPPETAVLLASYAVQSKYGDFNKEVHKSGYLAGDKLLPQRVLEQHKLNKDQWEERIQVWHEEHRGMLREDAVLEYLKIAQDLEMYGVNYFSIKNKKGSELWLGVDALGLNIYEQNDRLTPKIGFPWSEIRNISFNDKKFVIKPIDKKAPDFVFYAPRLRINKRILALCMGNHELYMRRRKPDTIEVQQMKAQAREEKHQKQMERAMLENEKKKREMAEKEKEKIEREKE
# [2] = Solubility by nephelometry; conditions: aqueous / PBS buffer
# [3] = molecular target: T1, 6His-tagged MSN FERM domain (residues 1-345), wild type (human, UniProt P26038 1-345); experiment: FRET or BRET
# [4] = molecular target: T1, 6His-tagged MSN FERM domain (residues …); experiment: FRET or BRET; remark: listed apart in the source
# [5] = molecular target: MSN FERM domain (residues 1-345), wild type, 6His tag cleaved (human, UniProt P26038 1-345); experiment: FRET or BRET
# [6] = molecular target: T1, 6His-tagged MSN FERM domain (residues …); experiment: FRET or BRET; remark: listed apart in the source
# [7] = molecular target: B2; experiment: FRET or BRET
Molecule,effect on MSN–CD44 interaction in GST pull-down assay [1],h (hill slope) of MSN–CD44 TR-FRET dose response (MSN–CD44 interaction),solubility [2],further results
"Nc1ccc(C(=O)Nc2ccc(-c3nc4ccc(NC(=O)c5ccc(N)cc5)cc4s3)cc2)cc1.O=C(O)C(F)(F)F.O=C(O)C(F)(F)F [Compound 1, 4-amino-N-(4-(6-(4-aminobenzamido)benzo[d]thiazol-2-yl)phenyl)benzamide bis(2,2,2-trifluoroacetate)]",induce the dissociation of CD44 from MSN,1.7,–,–
"COc1ccccc1C(=O)Nc1ccc(-c2nc3ccccc3[nH]2)cc1 [Compound 2, N-(4-(1H-benzo[d]imidazol-2-yl)phenyl)-2-methoxybenzamide]",induce the dissociation of CD44 from MSN,15.8,low solubility,–
"COc1ccc(C(=O)Nc2ccc(-c3nc4ccccc4[nH]3)cc2)c(OC)c1 [Compound 2a, N-(4-(1H-benzo[d]imidazol-2-yl)phenyl)-2,4-dimethoxybenzamide]",able to inhibit the MSN–CD44 interaction,2.4,improved solubility,increase in potency relative to compound 2 (MSN–CD44 interaction): approximately 2 fold
"O=C(Nc1ccc(-c2nc3ccccc3[nH]2)cc1)c1cccc(Cl)c1 [Compound 2b, N-(4-(1H-benzo[d]imidazol-2-yl)phenyl)-3-chlorobenzamide]",able to inhibit the MSN–CD44 interaction,2.3,improved solubility,increase in potency relative to compound 2 (MSN–CD44 interaction): approximately 2 fold
B1,–,–,–,EC50 [3]: ~130 nM; IC50 [4]: ~220 nM
B2,–,–,–,binding result [5]: binds; binding result [6]: binds
B3,–,–,–,"fold higher concentration needed to inhibit, against WT MSN [7]: 10 fold"
B4,–,–,–,"fold higher concentration needed to inhibit, against WT MSN [7]: 10 fold"
